According to patent publication US20230373985A1 (Origenis Gmbh, priority 2020, published 2023):

Assays:
[1] = biological target: T1, wt human JAK1, catalytic site (Homo sapiens, UniProt P23458); test: HTRF KinEASE assay, JAK1; assay type: biochemical; details: 2.5 μM ATP; read-out: IC50, Activity Toward JAK1
T1 construct: wt human JAK1, catalytic site; purchased ThermoFisher
Method: (§1) Basic protocol for HTRF KinEASE assay (Cisbio/FRA) inhibitor studies involved two steps: • Enzymatic step: Addition of 4 μL of test compound in corresponding DMSO dilutions, 4 μL of kinase/substrate mixture, 2 μL of ATP into 384 well small volume plates. Incubation for at least 30 minutes at room temperature. • Detection step: Addition of 5 μL antibody and 5 μL streptavidin-XL665, read plate after 60 minutes. Data analysis of emission ratios according KinEASE assay protocol.
(§2) Kinase and assay components were adjusted to final concentrations according to kit protocol. For TYK2: 2 nM wt human TYK2, catalytic site (SignalChem/CAN), 1 μM HTRF KinEASE-TK Substrate-biotin, 1 μM ATP in 1× Kinase Buffer. […] For JAK2: 1 nM wt human JAK2, catalytic site (SignalChem/CAN), 1 μM HTRF KinEASE-TK Substrate-biotin, 100 μM ATP in 1× Kinase Buffer.
as §2

[2] = biological target: T2, wt human TYK2, catalytic site (Homo sapiens, UniProt P29597); test: HTRF KinEASE assay, TYK2; assay type: biochemical; details: 1 μM ATP; read-out: IC50, Activity Toward TYK2
T2 construct: wt human TYK2, catalytic site; purchased SignalChem
T2 sequence (P29597 897-1176 limits assumed): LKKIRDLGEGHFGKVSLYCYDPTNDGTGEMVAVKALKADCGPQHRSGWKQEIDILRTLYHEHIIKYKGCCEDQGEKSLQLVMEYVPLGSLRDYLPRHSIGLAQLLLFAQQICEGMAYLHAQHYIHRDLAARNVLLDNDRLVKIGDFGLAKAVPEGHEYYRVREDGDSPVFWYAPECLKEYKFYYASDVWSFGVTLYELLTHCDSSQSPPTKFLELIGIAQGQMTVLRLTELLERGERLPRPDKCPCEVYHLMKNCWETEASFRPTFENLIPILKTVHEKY
Method: as §1
(§3) Kinase and assay components were adjusted to final concentrations according to kit protocol. For TYK2: 2 nM wt human TYK2, catalytic site (SignalChem/CAN), 1 μM HTRF KinEASE-TK Substrate-biotin, 1 μM ATP in 1× Kinase Buffer. For JAK1: 4 nM wt human JAK1, catalytic site (ThermoFisher/USA), 1 μM HTRF KinEASE-TK Substrate-biotin, 2.5 μM ATP in 1× Kinase Buffer. For JAK2: 1 nM wt human JAK2, catalytic site (SignalChem/CAN), 1 μM HTRF KinEASE-TK Substrate-biotin, 100 μM ATP in 1× Kinase Buffer.
as §3

T1 sequence (P23458 875-1153 limits assumed): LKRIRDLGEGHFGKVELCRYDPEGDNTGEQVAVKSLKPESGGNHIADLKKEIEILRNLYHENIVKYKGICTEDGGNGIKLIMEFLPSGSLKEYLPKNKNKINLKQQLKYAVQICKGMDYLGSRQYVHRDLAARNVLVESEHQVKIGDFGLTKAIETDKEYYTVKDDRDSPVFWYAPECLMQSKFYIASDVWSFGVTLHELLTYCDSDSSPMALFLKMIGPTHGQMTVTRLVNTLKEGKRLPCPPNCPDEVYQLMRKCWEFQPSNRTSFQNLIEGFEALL

Compound	IC50 [1] [nM]	IC50 [2] [nM]
NC(=O)c1nn(-c2c(Cl)cccc2Cl)cc1Nc1ccc(-n2nnc3c2CCCC3)cc1 [compound 73, 1-(2,6-dichlorophenyl)-4-((4-(4,5,6,7-tetrahydro-1H-benzo[d][1,2,3]triazol-1-yl)phenyl)amino)-1H-pyrazole-3-carboxamide]	100 to 1000	10 to 100
Cc1ccn(-c2ccc(Nc3cn(-c4c(Cl)cccc4Cl)nc3C(N)=O)cc2)n1 [compound 75, 1-(2,6-dichlorophenyl)-4-((4-(3-methyl-1H-pyrazol-1-yl)phenyl)amino)-1H-pyrazole-3-carboxamide]	100 to 1000	100 to 1000
NC(=O)c1nn(-c2c(Cl)cccc2Cl)cc1Nc1ccc(-n2ccc(Cl)n2)cc1 [compound 76, 4-((4-(3-chloro-1H-pyrazol-1-yl)phenyl)amino)-1-(2,6-dichlorophenyl)-1H-pyrazole-3-carboxamide]	100 to 1000	
Cn1ccc(=O)n1-c1ccc(Nc2cn(-c3c(Cl)cccc3Cl)nc2C(N)=O)cc1 [compound 77, 1-(2,6-dichlorophenyl)-4-((4-(2-methyl-5-oxo-2,5-dihydro-1H-pyrazol-1-yl)phenyl)amino)-1H-pyrazole-3-carboxamide]	100 to 1000	100 to 1000
Cn1ccc(Oc2ccc(Nc3cn(-c4c(Cl)cccc4Cl)nc3C(N)=O)cc2)n1 [compound 78, 1-(2,6-dichlorophenyl)-4-((4-((1-methyl-1H-pyrazol-3-yl)oxy)phenyl)amino)-1H-pyrazole-3-carboxamide]	100 to 1000	10 to 100
NC(=O)c1nn(-c2c(Cl)cccc2Cl)cc1Nc1ccc(-n2cnc(Cl)n2)cc1 [compound 79, 4-((4-(3-chloro-1H-1,2,4-triazol-1-yl)phenyl)amino)-1-(2,6-dichlorophenyl)-1H-pyrazole-3-carboxamide]	100 to 1000	10 to 100
CCc1nc(C(F)(F)F)nn1-c1ccc(Nc2nn(-c3c(Cl)cccc3Cl)nc2C(N)=O)cc1 [compound 121]	100 to 1000	
Cc1cn(-c2ccc(Nc3cn(-c4c(Cl)cccc4Cl)nc3C(N)=O)cc2)nc1C [compound 217, 1-(2,6-dichlorophenyl)-4-((4-(3,4-dimethyl-1H-pyrazol-1-yl)phenyl)amino)-1H-pyrazole-3-carboxamide]	100 to 1000	
CCc1c(C)nn(-c2ccc(Nc3cn(-c4c(Cl)cccc4Cl)nc3C(N)=O)cc2)c1C [compound 222, 1-(2,6-dichlorophenyl)-4-((4-(4-ethyl-3,5-dimethyl-1H-pyrazol-1-yl)phenyl)amino)-1H-pyrazole-3-carboxamide]	100 to 1000	
CCc1cccnc1-c1ccc(Nc2cn(-c3c(Cl)cccc3Cl)nc2C(N)=O)cc1 [compound 234, 1-(2,6-dichlorophenyl)-4-((4-(3-ethylpyridin-2-yl)phenyl)amino)-1H-pyrazole-3-carboxamide]	100 to 1000	
NC(=O)c1nn(-c2c(Cl)cccc2Cl)cc1Nc1ccc(-n2nncc2C(F)(F)F)cn1 [compound 437, 1-(2,6-dichlorophenyl)-4-((5-(5-(trifluoromethyl)-1H-1,2,3-triazol-1-yl)pyridin-2-yl)amino)-1H-pyrazole-3-carboxamide]	100 to 1000	
Cc1cccc2nnc(-c3ccc(Nc4cn(-c5c(Cl)cc(F)cc5Cl)nc4C(N)=O)cn3)n12 [compound 477, 1-(2,6-dichloro-4-fluorophenyl)-4-((6-(5-methyl-[1,2,4]triazolo[4,3-a]pyridin-3-yl)pyridin-3-yl)amino)-1H-pyrazole-3-carboxamide]		10 to 100

Further lines, results first:

IC50 [1] [nM]	IC50 [2] [nM]	Compound
100 to 1000	10 to 100	NC(=O)c1nn(-c2c(Cl)cccc2Cl)nc1Nc1ccc(C(=O)N2CCC(F)C2)cn1 (stereo in doubt) [compound 130, (S)-2-(2,6-dichlorophenyl)-5-((5-(3-fluoropyrrolidine-1-carbonyl)pyridin-2-yl)amino)-2H-1,2,3-triazole-4-carboxamide]
100 to 1000	10 to 100	N#Cc1cc(Cl)c(-n2nc(Nc3ccc(C(=O)N4CCC(F)C4)cc3)c(C(N)=O)n2)c(Cl)c1 (stereo in doubt) [compound 148, (R)-2-(2,6-dichloro-4-cyanophenyl)-5-((4-(3-fluoropyrrolidine-1-carbonyl)phenyl)amino)-2H-1,2,3-triazole-4-carboxamide]
100 to 1000		CS(=O)(=O)n1cc(Nc2nn(-c3c(Cl)cccc3Cl)nc2C(N)=O)cn1 [Compound No. 172, 2-(2,6-dichlorophenyl)-5-((1-(methylsulfonyl)-1H-pyrazol-4-yl)amino)-2H-1,2,3-triazole-4-carboxamide]
100 to 1000	10 to 100	CC(C)(C)NC(=O)c1ccc(Nc2cn(-c3c(Cl)cccc3Cl)nc2C(N)=O)cc1F [compound 28, 4-((4-(tert-butylcarbamoyl)-3-fluorophenyl)amino)-1-(2,6-dichlorophenyl)-1H-pyrazole-3-carboxamide]
100 to 1000	10 to 100	CC(C)(C)NC(=O)c1ccc(Nc2cn(-c3c(F)cccc3Cl)nc2C(N)=O)cc1F [compound 29]
100 to 1000	100 to 1000	CC(C)(C)OC(=O)N1CCCC(NC(=O)c2ccc(Nc3cn(-c4c(Cl)cccc4Cl)nc3C(N)=O)cc2)C1 (centres unmarked) [compound 33, tert-butyl_3-(4-((3-carbamoyl-1-(2,6-dichlorophenyl)-1H-pyrazol-4-yl)amino)benzamido)piperidine-1-carboxylate]
10 to 100	100 to 1000	NC(=O)c1nn(-c2c(Cl)cccc2Cl)cc1Nc1ccc(C(=O)NC2CCCNC2)cc1 (centres unmarked) [compound 39, 1-(2,6-dichlorophenyl)-4-((4-(piperidin-3-ylcarbamoyl)phenyl)amino)-1H-pyrazole-3-carboxamide]
100 to 1000	100 to 1000	CC(C)(C)C(=O)c1ccc(Nc2cn(-c3c(Cl)cccc3Cl)nc2C(N)=O)cc1 [compound 41, 1-(2,6-dichlorophenyl)-4-((4-pivaloylphenyl)amino)-1H-pyrazole-3-carboxamide]
100 to 1000	100 to 1000	Cc1nc2cc(Nc3cn(-c4c(Cl)cccc4Cl)nc3C(N)=O)ccc2n1C [compound 43, 1-(2,6-dichlorophenyl)-4-((1,2-dimethyl-1H-benzo[d]imidazol-5-yl)amino)-1H-pyrazole-3-carboxamide]
100 to 1000	10 to 100	NC(=O)c1nn(-c2c(Cl)cccc2Cl)cc1Nc1ccc(-c2nnc3n2CCCC3)cc1 [compound 55, 1-(2,6-dichlorophenyl)-4-((4-(5,6,7,8-tetrahydro-[1,2,4]triazolo[4,3-a]pyridin-3-yl)phenyl)amino)-1H-pyrazole-3-carboxamide]
100 to 1000	100 to 1000	NC(=O)c1nn(-c2c(Cl)cccc2Cl)cc1Nc1ccc(-c2nnccc2Cl)cc1 [compound 67, 4-((4-(4-chloropyridazin-3-yl)phenyl)amino)-1-(2,6-dichlorophenyl)-1H-pyrazole-3-carboxamide]
100 to 1000	10 to 100	NC(=O)c1nn(-c2c(Cl)cccc2Cl)cc1Nc1ccc(-c2nnccc2C(F)(F)F)cc1 [compound 69, 1-(2,6-dichlorophenyl)-4-((4-(4-(trifluoromethyl)pyridazin-3-yl)phenyl)amino)-1H-pyrazole-3-carboxamide]
100 to 1000	10 to 100	Cc1ccc(=O)n(-c2ccc(Nc3cn(-c4c(Cl)cccc4Cl)nc3C(N)=O)cc2)n1 [compound 72, 1-(2,6-dichlorophenyl)-4-((4-(3-methyl-6-oxopyridazin-1(6H)-yl)phenyl)amino)-1H-pyrazole-3-carboxamide]
10 to 100	10 to 100	NC(=O)c1nn(-c2c(Cl)cccc2Cl)cc1Nc1ccc(C(=O)N2CCOCC2)cn1 [compound 74, 1-(2,6-dichlorophenyl)-4-((5-(morpholine-4-carbonyl)pyridin-2-yl)amino)-1H-pyrazole-3-carboxamide]
10 to 100	10 to 100	NC(=O)c1nn(-c2c(Cl)cccc2Cl)cc1Nc1ccc(C(=O)N2CCC2)cc1 [compound 92, 4-((4-(azetidine-1-carbonyl)phenyl)amino)-1-(2,6-dichlorophenyl)-1H-pyrazole-3-carboxamide]
10 to 100		NC(=O)c1nn(-c2c(Cl)cccc2Cl)nc1Nc1ccc(-n2nncc2C(F)(F)F)cc1 [compound 155, 2-(2,6-dichlorophenyl)-5-((4-(5-(trifluoromethyl)-1H-1,2,3-triazol-1-yl)phenyl)amino)-2H-1,2,3-triazole-4-carboxamide]
